PubChem BioAssay AID602284 (Broad Institute, 2012)
Calls of active or inactive are those of the source.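 How the source made its calls: active means every test run fits a half-maximal inhibitory dose no higher than twice its top dose tested; inconclusive means runs disagree, flat partial inhibition, or poor curve fit; inactive means the rest.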

Molecular target: Cyclin-dependent kinase 5 activator 1 (Homo sapiens) + Cyclin-dependent kinase 5 (Homo sapiens) (UniProt Q15078+Q00535)
Test: CDK5/p35 kinase inhibitors, dose response, biochemical, ADP-Glo luminescence, dry powder samples (AID 602284)
Settings: histone H1 peptide

Sequence of Cyclin-dependent kinase 5 activator 1 (Homo sapiens) + Cyclin-dependent kinase 5 (Homo sapiens) (Q00535 whole entry, looked up): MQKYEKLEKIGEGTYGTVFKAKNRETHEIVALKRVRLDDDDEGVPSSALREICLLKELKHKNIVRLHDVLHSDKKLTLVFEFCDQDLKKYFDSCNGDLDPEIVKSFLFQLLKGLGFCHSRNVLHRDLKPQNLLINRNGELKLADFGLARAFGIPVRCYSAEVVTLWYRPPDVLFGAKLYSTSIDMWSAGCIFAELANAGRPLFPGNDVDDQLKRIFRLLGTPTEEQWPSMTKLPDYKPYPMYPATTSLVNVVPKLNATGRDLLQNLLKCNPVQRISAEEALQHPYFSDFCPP
Sequence of Cyclin-dependent kinase 5 activator 1 (Homo sapiens) + Cyclin-dependent kinase 5 (Homo sapiens) (Q15078 whole entry, looked up): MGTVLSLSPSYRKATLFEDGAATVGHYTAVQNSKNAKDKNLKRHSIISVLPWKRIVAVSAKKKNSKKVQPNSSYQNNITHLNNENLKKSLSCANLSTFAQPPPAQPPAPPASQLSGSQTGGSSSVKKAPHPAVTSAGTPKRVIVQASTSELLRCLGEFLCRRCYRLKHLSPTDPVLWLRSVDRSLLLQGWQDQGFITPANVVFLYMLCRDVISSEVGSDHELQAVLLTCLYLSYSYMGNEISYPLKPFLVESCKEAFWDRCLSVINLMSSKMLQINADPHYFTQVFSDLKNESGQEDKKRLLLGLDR

| Compound | activity change, negative = inhibition (at 30 µM (top of the series)) | also measured |
| --- | --- | --- |
| CCCn1c(NC(=O)c2cccc(S(=O)(=O)N(C)C)c2)nc2ccccc21 | – | AC50: 10.2 µM |
| O=C(c1ccc(Cl)cc1)N1CCN(c2ccc(C(F)(F)F)cn2)CC1 | inactive | – |
| Cc1ccc(N2CCN(C(=O)c3ccc(Cl)cc3)CC2)nc1 | inactive | – |
| O=C(c1ccc(Cl)cc1)N1CCN(c2cccc(C(F)(F)F)n2)CC1 | inactive | – |
| O=C(c1ccccc1)N1CCN(c2ccccn2)CC1 | – | activity change, negative = inhibition (at 10 µM (top of the series)): inactive |
| O=C(c1ccc(F)cc1)N1CCN(c2ccccn2)CC1 | inactive | – |
| CC(C)(C)n1c(NC(=O)c2cccc(S(C)(=O)=O)c2)nc2ccccc21 | – | AC50: 12.3 µM |
| CCCn1c(NC(=O)c2cccc(S(=O)(=O)N(CC)CC)c2)nc2ccccc21 | – | AC50: 2.95 µM |
| O=C(c1cccc(Cl)c1)N1CCN(c2ccccn2)CC1 | inactive | – |
| c1ccc(N2CCNCC2)nc1 | – | activity change, negative = inhibition (at 0.38 µM (top of the series)): inactive |
| N#Cc1ccc(N2CCN(C(=O)c3ccc(Cl)cc3)CC2)nc1 | inactive | – |
| CCCn1c(NC(=O)c2cccc(S(=O)(=O)N3CCCCC3)c2)nc2ccccc21 | – | AC50: 13.5 µM |
| COc1ccc(C(=O)N2CCN(c3ccccn3)CC2)cc1 | inactive | – |
| CCCn1c(NC(=O)c2ccc(OC)c(S(=O)(=O)N3CCCC3)c2)nc2ccccc21 | inactive | – |
| N#Cc1ccc(C(=O)N2CCN(c3ccccn3)CC2)cc1 | inactive | – |
| CC(C)C(=O)N1CCN(c2ccccn2)CC1 | inactive | – |
| O=C(c1ccc(Cl)cc1)N1CCN(c2ccccn2)CC1 | inactive | – |

| Compound | activity change, negative = inhibition (at 30 µM (top of the series)) | also measured |
| --- | --- | --- |
| O=C(C1CCCCC1)N1CCN(c2ccccn2)CC1 | inactive | – |
| CCCn1c(NC(=O)c2ccc(Cl)c(S(=O)(=O)N3CCCC3)c2)nc2ccccc21 | inactive | – |
| Cc1ccnc(N2CCN(C(=O)c3ccc(Cl)cc3)CC2)c1 | inactive | – |
| O=C(c1ccc(Cl)cc1)N1CCN(c2ncccc2C(F)(F)F)CC1 | inactive | – |
| CCOc1cc(C(=O)N2CCN(c3ccccn3)CC2)cc(OCC)c1OCC | inactive | – |
| O=C(c1ccccc1Cl)N1CCN(c2ccccn2)CC1 | inactive | – |
| CCn1c(NC(=O)c2cccc(S(=O)(=O)NC)c2)nc2ccccc21 | – | AC50: 29.1 µM |
| N#Cc1cccnc1N1CCN(C(=O)c2ccc(Cl)cc2)CC1 | inactive | – |
| Cc1ccc(C(=O)N2CCN(c3ccccn3)CC2)cc1 | inactive | – |
| COc1cc(C(=O)N2CCN(c3ccccn3)CC2)cc(OC)c1OC | inactive | – |
| COCCC(=O)N1CCN(c2ccccn2)CC1 | inactive | – |
| COc1cccc(C(=O)N2CCN(c3ccccn3)CC2)c1 | inactive | – |
| COc1cc(C(=O)N2CCN(c3ccccc3)CC2)cc(OC)c1OC | inactive | – |
| CCCCC(=O)N1CCN(c2ccccn2)CC1 | inactive | – |
| COc1ccnc(N2CCN(C(=O)c3ccc(Cl)cc3)CC2)c1 | inactive | – |
| COc1cccnc1N1CCN(C(=O)c2ccc(Cl)cc2)CC1 | inactive | – |
| Cc1cccc(N2CCN(C(=O)c3ccc(Cl)cc3)CC2)n1 | inactive | – |
